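96-well plates; 48 h exposure; 5 concentrations. Endpoints by linear interpolation between flanking doses. Not reached: highest tested concentration assigned. GI50: concentration for 50% inhibition of growth.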 Calls of active or inactive are those of the source. Cut-off read from the data, not from the text of the source: active = GI50 up to about 1.1 µM and inactive = higher.
How the values were obtained:
Experiment in all cases: NCI-60 cell line screen, 48 h
MDA-N = tested on: MDA-N
NCI/ADR-RES = tested on: NCI/ADR-RES
OVCAR-5 = tested on: OVCAR-5
M14 = tested on: M14
OVCAR-4 = tested on: OVCAR-4
SK-OV-3 = tested on: SK-OV-3
A498 = tested on: A498
HCC 2998 = tested on: HCC 2998
SF-268 = tested on: SF-268
IGROV-1 = tested on: IGROV-1
HOP-92 = tested on: HOP-92
OVCAR-3 = tested on: OVCAR-3
MDA-MB-231 = tested on: MDA-MB-231
UO-31 = tested on: UO-31
A549 = tested on: A549
UACC-257 = tested on: UACC-257
CAKI-1 = tested on: CAKI-1
EKVX = tested on: EKVX
NCI-H226 = tested on: NCI-H226
HCT-15 = tested on: HCT-15
KM12 = tested on: KM12
U-251 = tested on: U-251
SK-MEL-5 = tested on: SK-MEL-5
SF-295 = tested on: SF-295
SK-MEL-2 = tested on: SK-MEL-2
Malme-3M = tested on: Malme-3M
CCRF-CEM = tested on: CCRF-CEM
UACC-62 = tested on: UACC-62
RXF 393 = tested on: RXF 393
T47D = tested on: T47D
COLO 205 = tested on: COLO 205
OVCAR-8 = tested on: OVCAR-8
SN12C = tested on: SN12C
HT-29 = tested on: HT-29
SNB-19 = tested on: SNB-19
MOLT-4 = tested on: MOLT-4
TK-10 = tested on: TK-10
ACHN = tested on: ACHN
SK-MEL-28 = tested on: SK-MEL-28
RPMI-8226 = tested on: RPMI-8226
HL-60 = tested on: HL-60
HCT-116 = tested on: HCT-116
MDA-MB-435 = tested on: MDA-MB-435
SW-620 = tested on: SW-620
SNB-75 = tested on: SNB-75
PC-3 = tested on: PC-3
MCF7 = tested on: MCF7
DU-145 = tested on: DU-145
NCI-H460 = tested on: NCI-H460
HOP-62 = tested on: HOP-62
NCI-H522 = tested on: NCI-H522
Hs-578T = tested on: Hs-578T
786-0 = tested on: 786-0
NCI-H23 = tested on: NCI-H23
BT-549 = tested on: BT-549
K562 = tested on: K562
SF-539 = tested on: SF-539
LOX IMVI = tested on: LOX IMVI

Measured: GI50

CN(C)c1ccc(/C=C2\N=C(N/N=C/c3ccc(N(C)C)cc3)NC2=O)cc1
inactive: MDA-N > 100 µM | NCI/ADR-RES > 100 µM | OVCAR-5 > 100 µM | M14 88.7 µM | OVCAR-4 > 100 µM | SK-OV-3 > 100 µM | A498 26.8 µM | HCC 2998 > 100 µM | SF-268 80.4 µM | IGROV-1 38.7 µM | HOP-92 25.5 µM | OVCAR-3 50.9 µM | MDA-MB-231 31.4 µM | UO-31 > 100 µM | A549 92.5 µM | UACC-257 > 100 µM | CAKI-1 > 100 µM | EKVX > 100 µM | NCI-H226 > 100 µM | KM12 61.1 µM | U-251 52.1 µM | SK-MEL-5 44.4 µM | SF-295 58.2 µM | SK-MEL-2 > 100 µM | Malme-3M > 100 µM | CCRF-CEM 27.5 µM | UACC-62 > 100 µM | RXF 393 7.6 µM | T47D 16.7 µM | COLO 205 22.8 µM | OVCAR-8 24.8 µM | SN12C > 100 µM | HT-29 42.7 µM | SNB-19 > 100 µM | MOLT-4 92 µM | TK-10 > 100 µM | ACHN > 100 µM | SK-MEL-28 > 100 µM | RPMI-8226 76.6 µM | HL-60 29.4 µM | HCT-116 > 100 µM | MDA-MB-435 > 100 µM | SW-620 > 100 µM | SNB-75 > 100 µM | PC-3 > 100 µM | MCF7 71.9 µM | DU-145 28.1 µM | NCI-H460 51.5 µM | HOP-62 > 100 µM | NCI-H522 47.9 µM | Hs-578T > 100 µM | 786-0 > 100 µM | NCI-H23 > 100 µM | BT-549 > 100 µM
30.8 µM: HCT-15

Cc1ccc(S(=O)(=O)c2scc(-c3ccccc3)c2C)cc1
inactive: MDA-N > 100 µM | NCI/ADR-RES 35.5 µM | M14 > 100 µM | OVCAR-4 > 100 µM | SK-OV-3 > 100 µM | HCC 2998 > 100 µM | K562 53 µM | SF-268 > 100 µM | IGROV-1 > 100 µM | HOP-92 72.4 µM | OVCAR-3 77.3 µM | MDA-MB-231 > 100 µM | UO-31 > 100 µM | A549 57.8 µM | UACC-257 74 µM | CAKI-1 > 100 µM | EKVX 37.6 µM | NCI-H226 > 100 µM | KM12 > 100 µM | U-251 > 100 µM | SK-MEL-5 40.2 µM | SF-295 42.8 µM | SK-MEL-2 62.8 µM | Malme-3M > 100 µM | UACC-62 > 100 µM | RXF 393 > 100 µM | T47D 36.5 µM | COLO 205 > 100 µM | OVCAR-8 > 100 µM | SN12C > 100 µM | HT-29 > 100 µM | SNB-19 > 100 µM | MOLT-4 42.7 µM | TK-10 > 100 µM | ACHN 67.6 µM | SK-MEL-28 > 100 µM | RPMI-8226 44.2 µM | SF-539 61 µM | HL-60 45 µM | HCT-116 77.1 µM | MDA-MB-435 91 µM | SW-620 > 100 µM | SNB-75 > 100 µM | PC-3 89.3 µM | MCF7 61.1 µM | DU-145 93.5 µM | NCI-H460 > 100 µM | HOP-62 > 100 µM | NCI-H522 > 100 µM | LOX IMVI 64.3 µM | Hs-578T > 100 µM | 786-0 > 100 µM | NCI-H23 38.1 µM | BT-549 98.6 µM
> 100 µM: HCT-15
